Measurements reported in PubChem BioAssay (NCI).
Several values for one entry are separate records, joined by “and”; a condition that tells them apart may be missing. Equal values may be shown once.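 Cells were grown in 96-well plates and exposed to each compound for 48 hours at five concentrations; endpoints were interpolated linearly between bracketing concentrations, or set to the highest concentration if not reached. Here, GI50 denotes the concentration required for 50% inhibition of growth. Definition used: TGI = concentration required for complete inhibition of growth.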

Experiments:
Assay in all cases: growth of human tumour cells (NCI), 48 h
IGROV1 ovarian = system: IGROV1 ovarian
SK-MEL-5 melanoma = system: SK-MEL-5 melanoma
XF 498 CNS = system: XF 498 CNS
SF-268 CNS = system: SF-268 CNS
DLD-1 colon = system: DLD-1 colon
UACC-257 melanoma = system: UACC-257 melanoma
KM20L2 colon = system: KM20L2 colon
HCT-15 colon = system: HCT-15 colon
A498 renal = system: A498 renal
SNB-78 CNS = system: SNB-78 CNS
M19-MEL melanoma = system: M19-MEL melanoma
SR leukemia = system: SR leukemia
DMS 273 small cell lung = system: DMS 273 small cell lung

SMILES | TGI (IGROV1 ovarian) | TGI (SK-MEL-5 melanoma) | TGI (XF 498 CNS) [µM] | TGI (SF-268 CNS) | TGI (DLD-1 colon) [µM] | TGI (UACC-257 melanoma) | TGI (KM20L2 colon) [µM] | TGI (HCT-15 colon) | TGI (A498 renal) | TGI (SNB-78 CNS) [µM] | TGI (M19-MEL melanoma) [µM] | TGI (SR leukemia) [µM] | TGI (DMS 273 small cell lung) [µM] | GI50 (IGROV1 ovarian) [µM] | GI50 (SK-MEL-5 melanoma) [µM] | GI50 (SF-268 CNS) [µM] | GI50 (UACC-257 melanoma) [µM] | GI50 (HCT-15 colon) [µM] | GI50 (A498 renal) [µM] | GI50 (SR leukemia) [µM]
CC(=O)c1ccc(NC(=O)C(=O)Nn2c(=S)[nH]c3ccccc3c2=O)cc1 | > 100 µM | > 100 µM | > 100 | > 100 µM | > 100 | > 100 µM | > 100 | > 100 µM | > 100 µM | > 100 | > 100 | > 100 | – | – | – | – | – | – | – | –
C=C(Br)N(CC)CC | > 100 µM | > 100 µM | – | > 100 µM | > 100 | > 100 µM | > 100 | > 100 µM | > 100 µM | > 100 | > 100 | > 100 | > 100 | – | – | – | – | – | – | –
Fc1ccccc1C1CC(c2ccc3ccccc3c2)=Nc2ccccc2S1 (stereo unspecified) | > 100 µM | – | > 100 | > 100 µM | – | > 100 µM | > 100 | – | > 100 µM | > 100 | > 100 | > 100 | > 100 | – | – | – | – | – | – | –
COC1OC(COCc2ccc(Cl)cc2)C(OCc2ccc(Cl)cc2)C1N=[N+]=[N-] (stereo unspecified) | > 100 µM | > 100 µM | > 100 | – | – | > 100 µM | > 100 | > 100 µM | – | > 100 | – | > 100 | – | – | – | – | – | – | – | –
CCCCCCCCCCCCCP(=O)(O)OCC | > 100 µM | > 100 µM | – | > 100 µM | > 100 | > 100 µM | > 100 | > 100 µM | > 100 µM | > 100 | > 100 | – | – | – | – | – | – | – | – | –
O=C1C2C3C=CC(C2C(=O)N1COP(=O)(O)O)C1C2C(=O)N(COP(=O)(O)O)C(=O)C2C31 (stereo unspecified) | > 100 µM | > 100 µM | > 100 | > 100 µM | > 75.9 | > 100 µM | > 100 | > 57.9 µM | > 100 µM | > 100 | > 100 | 38.6 | > 56.3 | – | – | – | – | – | – | –
O=C(Cc1nc2ccccc2s1)Nc1cccc(C(F)(F)F)c1 | 25.9 µM | 32.2 µM | 28.4 | 29.7 µM | 29.9 | 28.7 µM | 41.6 | 30.3 µM | 22.3 µM | – | 25.6 | – | 42.9 | – | – | – | – | – | – | –
CN(C)CCNC(=O)c1cccc2c1nc(-c1ccccc1)c1ccccc12 | 18.2 µM | 5.52 µM | – | 18.5 µM | 15.3 | 3.48 µM | – | 13.1 µM | 16.9 µM | 26.4 | 17.3 | – | 13.2 | – | – | – | – | – | – | –
CC(=O)O[C@]1(C(C)=O)CC[C@H]2[C@@H]3C=C(C)C4=CC(=O)CC[C@]4(C)[C@H]3CC[C@@]21C | > 100 µM | > 100 µM | – | > 100 µM | – | > 100 µM | – | > 100 µM | > 100 µM | – | – | > 100 | – | > 100 | 56.3 | > 92.8 | > 89.2 | > 100 | > 75.7 | > 55.8
O=C(CCC(=O)C(C(=O)c1ccccc1)c1ccccc1)Nc1cccc(C(F)(F)F)c1 (stereo unspecified) | > 100 µM | – | > 100 | > 100 µM | > 100 | > 100 µM | > 100 | > 100 µM | > 100 µM | > 100 | > 100 | – | > 100 | – | – | – | – | – | – | –
O=C(NP(=O)(N1CC1)N1CC1)c1cc(I)ccc1I | > 100 µM | > 100 µM | > 100 | > 100 µM | > 100 | > 100 µM | > 100 | > 100 µM | > 100 µM | > 100 | > 100 | – | > 100 | – | – | – | – | – | – | –
CC1OC(OC2C(O[C@H]3CC[C@@]4(C)C(=CC[C@H]5[C@@H]6C[C@@H]7O[C@]8(CC[C@H](C)CN8)[C@@H](C)[C@@H]7[C@@]6(C)CC[C@@H]54)C3)OC(CO)C(O)C2OC2OC(CO)C(O)C(O)C2O)C(O)C(O)C1O (stereo partly specified) | 39.5 µM | 33.6 µM | – | 33.3 µM | – | 33 µM | – | 30.3 µM | 42.9 µM | – | – | 61.6 | – | – | – | – | – | – | – | –
Cc1ccc(S(=O)(=O)OCC23CCC(CC2)C2CC23)cc1 (stereo unspecified) | > 100 µM | 75.4 µM | – | > 100 µM | > 100 | > 100 µM | > 100 | > 100 µM | > 100 µM | – | > 100 | > 100 | > 100 | – | – | – | – | – | – | –
CC1(C)Cc2cc(C(=O)O)c3c(c2C1=O)COCC3 | > 100 µM | > 100 µM | > 100 | > 100 µM | > 100 | > 100 µM | > 100 | > 100 µM | > 100 µM | > 100 | > 100 | > 100 | > 100 | – | – | – | – | – | – | –
CS(=O)(=O)N(N(CCCl)S(=O)(=O)c1ccccc1)S(C)(=O)=O | – | > 100 µM | > 100 | > 100 µM | > 100 | > 100 µM | > 100 | > 100 µM | – | – | > 100 | > 100 | > 100 | – | – | – | – | – | – | –
COC(=O)CCC(=O)CC(=O)C(=O)Nc1c(Cl)cc([N+](=O)[O-])cc1Cl | > 100 µM | > 100 µM | > 100 | > 100 µM | > 100 | > 100 µM | > 100 | > 100 µM | > 100 µM | > 100 | > 100 | 61.7 | > 100 | – | – | – | – | – | – | –
COc1ccc(Nc2c3ccccc3nc3ccccc23)cc1 | 8.72 µM | 4.2 µM | – | 19.1 µM | – | 14.4 µM | – | 15.5 µM | 10.5 µM | – | – | 4.01 | – | 0.629 | 1.1 | 3.63 | 2.71 | 1.08 | 0.421 | 0.482
CCCCCCCCCCCC1CCCC(C)N1 (stereo unspecified) | 19.2 µM and 142 µM | 21.4 µM and 93.7 µM | 95.3 | 27.2 µM and 147 µM | 83.4 | 24.4 µM and 119 µM | 85.9 | 13.3 µM and 104 µM | 31.9 µM and 154 µM | 174 | 130 | > 100 | 136 | 6.13 | 8.15 | 11 | 10.3 | 2.85 | 16.2 | 2.63
